Results as given in paper PMC5766898, “Eel Kisspeptins: Identification, Functional Activity, and Inhibition on both Pituitary LH and GnRH Receptor Expression” (Frontiers in Endocrinology, 2018).
“Also recorded” adds a separate entry of the source. Where two headings read alike, the source gives them in different places. One block for each substance: values may come before it. Ends that are not written are not given here.

Assays:
rat KissR-1 = target: T1, rat KissR-1 (Rattus norvegicus, UniProt Q924U1); assay: [Ca^2+]i response (Fluo-4 AM, FlexStation) in rat KissR-1-transfected CHO-K1 cells; assay type: cell-based; settings: rat KissR-1 CHO-K1 cells, peak Fluo-4 fluorescence, 10^−12 to 10^−6 M, 37°C, four-parameter logistic, mean ± SEM from two independent experiments; for Emax: baseline normalized to 100%, 180 s recording
T1 construct: expressed in transfected cells
Experimental: CHO-K1 cells were cultured to semiconfluence in 12-well plates using Ham’s F12 medium supplemented with 10% fetal bovine serum and 1% antibiotic–antimycotic solution. Cells were transfected with different quantities of the recombinant plasmid, ranging from 3 to 5 µg, using Lipofectamine 2000 (Invitrogen, Cergy Pontoise, France) as previously described ([30]). Twenty-four hours after transfection, media were replaced by fresh F12 medium containing 1 mg/ml G418 (Geneticin; Life Technologies, Inc.). One week later, surviving cells were detached, diluted, and plated on 96-well plates at 0.7 cells/well. Monoclonal cell lines expressing rat KissR-1 (CHO-K1-rKissR-1) were followed daily by contrast phase microscopy. Seven independent monoclonal stable cell lines were obtained after a 3-week period of selection. By using qPCR, two cell lines were selected based on their expression levels being closest to physiological levels among all cell lines.
To compare the KissR-1 agonistic activities of eel Kp1(10), Kp2(10), Kp1(15), and Kp2(12), the level of [Ca^2+]i after stimulation of CHO-K1 cells stably expressing KissR-1 by these peptides was monitored by spectrofluorometry as previously described ([30], [31]) with slight modifications. Briefly, after 24 h in culture, cells were incubated for 1 h in a humidified incubator (37°C, 5% CO2) with 2 µM Fluo-4 acetoxymethyl ester (AM) calcium dye (Life Technologies, Saint Aubin, France) in Hank’s Buffer Saline Solution (HBSS; Life Technologies) buffered with 5 mM HEPES and supplemented with 2.5 mM probenecid (Sigma-Aldrich, Saint-Quentin Fallavier, France). Cells were washed twice with HBSS/HEPES/probenecid to remove Fluo-4 AM from the incubation medium and incubated in 150 µl of the same medium at 37°C for 15 min. Fluorescence was recorded using a Flexstation 3 fluorescence plate reader system (Molecular Devices, Saint-Grégoire, France) during 180 s with an excitation wavelength of 480 nm, an emission wavelength of 525 nm, and a cutoff filter of 515 nm. After 15 s recording in basal conditions, 50 µl of graded concentration (10^−12 to 10^−6 M) of different peptides (four-fold final concentration) was added to the incubation medium with the built-in eight-channel pipettor at a rate of 62 µl/s to assess their agonistic activity. After subtraction of mean fluorescence background from control wells without Fluo-4 AM, baseline was normalized to 100%, and fluorescence peak values were determined for each concentration of peptide. Potency (EC50) and efficacy (Emax) (Table 3) were determined with the Prism 6.0 software (GraphPad Software In., La Jolla, CA, USA) using a four-parameter logistic equation to fit peak fluorescence data.

human KissR-1 [1] = tested on: human KissR-1; design: method as in PMID 26047834; settings: CHO cells; cited from earlier work
LH secretion = settings: im injection, prepubertal and adult sea bass; Kp2(10) versus Kp1(10); cited from earlier work
Description: (§1) This paradoxical inhibitory effect contrasts with the general action of kisspeptin as an activator of puberty and reproduction, mostly at the brain level ([70]), but also directly on the pituitary [for reviews see Ref. ([71], [72])]. […] In contrast, in other studied teleosts, the action of kisspeptin is generally ...

mouse KissR-1 = tested on: mouse KissR-1; design: method as in PMID 26047834; settings: CHO cells; cited from earlier work
[2] = tested on: LH release by pituitary cells; settings: cited from earlier work
Description: as §1

[3] = tested on: lhβ expression by eel pituitary cells; settings: eel pituitary cells in primary culture; cited from earlier work
Description: In the eel, three Kiss receptor genes have been characterized, i.e., KissR-1, KissR-2, and KissR-3 ([19], [22]–[24]). Their expressions mainly occur in the brain, pituitary, and gonads ([19]).

human KissR-1 [4] = tested on: human KissR-1; design: method as in PMID 19164475; settings: CV-1 cells; cited from earlier work
[5] = tested on: fshβ expression by eel pituitary cells; settings: eel pituitary cells in primary culture; cited from earlier work
KissR-2 = settings: cited from earlier work
Description: (§2) For clarity, the nomenclature of Pasquier et al ([19], [24]) for KissR will be used in the following paragraphs. In teleost models with two receptors, various studies have shown differential affinities of Kiss peptides toward homologous receptors.

KissR-3 = settings: cited from earlier work
Description: as §2

LH release = settings: cited from earlier work
Description: as §1

lh expression = settings: cited from earlier work
Description: as §1

FSH gene transcription = settings: striped bass; cited from earlier work
Description: as §1

plasma LH levels = settings: striped bass, im, cited from earlier work
Description: as §1

FSH peptide secretion = settings: striped bass; cited from earlier work
Description: as §1

pituitary gnrh-r mRNAs = settings: female striped bass at dummy run phase, chronic administration in vivo; cited from earlier work
Description: (§3) This receptor is the one increased during experimental maturation in both female and male eels ([25]). To the best of our knowledge, only a single other study investigated the effect of kisspeptin on GnRH receptor in teleost. In female striped bass at dummy run phase (ovarian development is initiated but not completed), chronic administration in vivo of both Kp1(15) and Kp2(12) induces a decrease ...

FSH release = settings: sea bass; cited from earlier work
Description: as §1

[6] = tested on: expression of LH by pituitary cells; settings: goldfish pituitary cells, mixed sexes at late stages of sexual regression; cited from earlier work
Description: as §1

human KissR-1 [7] = tested on: human KissR-1; design: method as in PMID 18509165; settings: COS-7 cells; cited from earlier work
type II gnrh-r = settings: repeated injections, juvenile female Japanese quail; cited from earlier work
Description: as §3

[8] = pituitary cells from sexually mature female goldfish
[9] = zebrafish, COS-7, CHO-K1, and HEK293 cells
[10] = pituitary cells from mature male sea bass
[11] = striped bass, COS-7 cells, Kp1(15) versus Kp2(12)

T1 sequence (Q924U1 whole entry): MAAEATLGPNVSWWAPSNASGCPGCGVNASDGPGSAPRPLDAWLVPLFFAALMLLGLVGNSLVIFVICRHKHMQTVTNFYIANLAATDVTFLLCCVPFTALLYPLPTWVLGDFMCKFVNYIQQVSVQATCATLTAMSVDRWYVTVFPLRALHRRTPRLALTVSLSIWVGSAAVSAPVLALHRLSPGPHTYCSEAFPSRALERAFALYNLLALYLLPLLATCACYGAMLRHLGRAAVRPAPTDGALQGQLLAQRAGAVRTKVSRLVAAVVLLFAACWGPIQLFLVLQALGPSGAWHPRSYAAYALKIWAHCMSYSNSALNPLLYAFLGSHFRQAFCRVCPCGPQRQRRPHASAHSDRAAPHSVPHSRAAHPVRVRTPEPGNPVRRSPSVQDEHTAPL

- Emax (rat KissR-1): 277 ± 5.3%
- EC50 (rat KissR-1): 11.8 ± 2 nM
Substance: ENFSSYNWNSFGLRY-NH2 [Eel Kp1(15)]

Substance: FNFNPFGLRF [sea bass Kp2(10), sea bass Kiss peptide]
- activation of human KissR-1 (human KissR-1 [1]): can efficiently activate human KissR-1
- potency in inducing LH secretion (LH secretion): significantly more potent than Kp1(10) in inducing LH secretion
- activation of mouse KissR-1 (mouse KissR-1): not able to induce any activation

- Emax (rat KissR-1): 260 ± 9.5%
- EC50 (rat KissR-1): 56.6 ± 27.7 nM
Substance: FNRNPFGLRF-NH2 [Eel Kp2(10)]

Substance: FNYNPFGLRF [goldfish Kp2(10), homologous goldfish Kp2(10)]
- effect on LH release [2, 8]: inactive on LH release

Substance: FNYNPFGLRF [zebrafish Kp2(10), heterologous kisspeptin]
- effect on lhβ expression, heterologous kisspeptins [3]: can inhibit lhβ expression; also recorded: specific in vitro inhibitory effect
- activation of human KissR-1 (human KissR-1 [4]): highly efficient
- effect on fshβ expression, heterologous kisspeptins [5]: no effect on fshβ
- activation of KissR-2 (KissR-2; [9]): activated by both Kp1(10) and Kp2(10)

Substance: HQDMSSYNFNSFGLRY [chub mackerel Kp1(16), chub mackerel predicted mature peptide]
- activity on KissR-3 (KissR-3; chub mackerel, Kp1(16) versus Kp1(15)): more active than the shorter Kp1(15)

Substance: QDVSSYNLNSFGLRY [sea bass Kp1(15), sea bass Kiss peptide]
- activation of human KissR-1 (human KissR-1 [1]): can efficiently activate human KissR-1
- effect on LH release (LH release; [10]): no effect
- effect on lh expression (lh expression; [10]): no effect
- preference for KissR-2 (KissR-2; sea bass, CHO cells): preference for KissR-2

Substance: QDVSSYNLNSFGLRY [striped bass Kp1(15), striped bass Kiss peptide]
- effect on FSH gene transcription (FSH gene transcription): stimulate FSH
- effect on lh expression (lh expression; striped bass, in vitro): inhibitory effect on lh expression
- effect on plasma LH levels (plasma LH levels; gonadal recrudescence): could increase LH levels at gonadal recrudescence
- effect on plasma LH levels (plasma LH levels; overall): induces plasma LH levels in a stage-dependent manner
- effect on plasma LH levels (plasma LH levels; pubertal stage): no effect on LH at pubertal stage
- effect on FSH peptide secretion (FSH peptide secretion): stimulate FSH
- effect on pituitary gnrh-r mRNAs (pituitary gnrh-r mRNAs): induces a decrease of pituitary gnrh-r mRNAs
- activation of KissR-3 (KissR-3; [11]): activate KissR-3 with the same potency

Substance: QNVAYYNLNSFGLRY [zebrafish Kp1(15), heterologous kisspeptin]
- effect on lhβ expression, heterologous kisspeptins [3]: can inhibit lhβ expression; also recorded: specific in vitro inhibitory effect
- activation of human KissR-1 (human KissR-1 [4]): highly efficient
- effect on fshβ expression, heterologous kisspeptins [5]: no effect on fshβ
- preference for KissR-2 (KissR-2; zebrafish, CV-1 cells): preference for KissR-2

Substance: SKFNFNPFGLRF [sea bass Kp2(12), sea bass Kiss peptide]
- activation of human KissR-1 (human KissR-1 [1]): can efficiently activate human KissR-1
- effect on LH release (LH release; [10]): induces both lh expression and LH release
- in vitro FSH release (FSH release): can induce in vitro FSH release
- effect on lh expression (lh expression; [10]): induces both lh expression and LH release
- potency for activating KissR-3 (KissR-3; sea bass, CHO cells): higher potency for activating KissR-3

Substance: SKFNFNPFGLRF [striped bass Kp2(12), striped bass Kiss peptide]
- effect on LH release (LH release; striped bass, in vitro): stimulated LH release
- effect on FSH gene transcription (FSH gene transcription): stimulate FSH
- effect on plasma LH levels (plasma LH levels; gonadal recrudescence): could increase LH levels at gonadal recrudescence
- effect on plasma LH levels (plasma LH levels; overall): induces plasma LH levels in a stage-dependent manner
- effect on FSH peptide secretion (FSH peptide secretion): stimulate FSH
- effect on pituitary gnrh-r mRNAs (pituitary gnrh-r mRNAs): induces a decrease of pituitary gnrh-r mRNAs
- activation of KissR-2 (KissR-2; striped bass, COS-7 cells, Kp2(12) versus Kp1(15)): more efficiently activated
- activation of KissR-3 (KissR-3; [11]): activate KissR-3 with the same potency

- Emax (rat KissR-1): 256 ± 6.7%
- EC50 (rat KissR-1): 135 ± 18.9 nM
Substance: SKFNRNPFGLRF-NH2 [Eel Kp2(12)]

Substance: SKFNYNPFGLRF [zebrafish Kp2(12), zebrafish Kiss peptide]
- activation of human KissR-1 (human KissR-1 [4]): highly efficient
- potency for activating KissR-3 (KissR-3; zebrafish, CV-1 cells): higher potency for activating KissR-3

Substance: YNLNSFGLRY [goldfish Kp1(10), homologous goldfish Kp1(10)]
- effect on LH expression [6]: increases the release and expression of LH
- effect on LH release ([2]; goldfish pituitary cells, mixed sexes at late stages of sexual regression): increases the release and expression of LH
- effect on LH release [2, 8]: inactive on LH release

Substance: YNLNSFGLRY [sea bass Kp1(10), sea bass Kiss peptide]
- activation of human KissR-1 (human KissR-1 [1]): can efficiently activate human KissR-1

Substance: YNLNSFGLRY [zebrafish Kp1(10), heterologous kisspeptin]
- effect on lhβ expression, heterologous kisspeptins [3]: can inhibit lhβ expression; also recorded: specific in vitro inhibitory effect
- activation of human KissR-1 (human KissR-1 [7]): highly efficient
- effect on fshβ expression, heterologous kisspeptins [5]: no effect on fshβ
- activation of KissR-2 (KissR-2; [9]): activated by both Kp1(10) and Kp2(10)
- activation of KissR-3 (KissR-3; [9]): preferentially activated by Kp1(10)

Substance: YNWNSFGLRF [human/lamprey Kp1(10), heterologous kisspeptin]
- effect on lhβ expression, heterologous kisspeptins [3]: can inhibit lhβ expression; also recorded: specific in vitro inhibitory effect
- effect on fshβ expression, heterologous kisspeptins [5]: no effect on fshβ
- effect on pituitary expression of type II gnrh-r (type II gnrh-r): upregulated pituitary expression of type II

- Emax (rat KissR-1): 236 ± 8.4%
- EC50 (rat KissR-1): 8.5 ± 4.5 nM
Substance: YNWNSFGLRY-NH2 [Eel Kp1(10)]

Substance: human Kp1(14): heterologous kisspeptin (DLPNYNWNSFGLRF; ends and bridges not checked; UniProt Q15726 108-121, looked up)
- effect on lhβ expression, heterologous kisspeptins [3]: can inhibit lhβ expression; also recorded: specific in vitro inhibitory effect
- effect on fshβ expression, heterologous kisspeptins [5]: no effect on fshβ
